# Test results taken from ChEMBL document CHEMBL1201862, “PubChem BioAssay data set” (2004).
#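 Exposure lasted 48 hours, with cells grown in 96-well plates and compounds tested at five concentrations. Here, GI50 denotes the concentration required for 50% inhibition of growth.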 Active and inactive are the calls of the source. Cut-off read from the data, not from the text of the source: active = GI50 up to about 1.1 µM and inactive = higher.
# Columns and labels:
# Experiment in all cases: NCI tumour cell line growth inhibition, 48 h
# [1] = test system: 786-0
# [2] = test system: A498
# [3] = test system: A549
# [4] = test system: ACHN
# [5] = test system: BT-549
# [6] = test system: CAKI-1
# [7] = test system: CCRF-CEM
# [8] = test system: COLO 205
# [9] = test system: DU-145
# [10] = test system: EKVX
# [11] = test system: HCC 2998
# [12] = test system: HCT-116
# [13] = test system: HCT-15
# [14] = test system: HL-60
# [15] = test system: HOP-62
# [16] = test system: HOP-92
# [17] = test system: HT-29
# [18] = test system: Hs-578T
# [19] = test system: IGROV-1
# [20] = test system: K562
# [21] = test system: KM12
# [22] = test system: LOX IMVI
# [23] = test system: M14
# [24] = test system: MCF7
# [25] = test system: MDA-MB-231
# [26] = test system: MDA-MB-435
# [27] = test system: MDA-N
# [28] = test system: MOLT-4
# [29] = test system: Malme-3M
# [30] = test system: NCI-H226
# [31] = test system: NCI-H23
# [32] = test system: NCI-H460
# [33] = test system: NCI-H522
# [34] = test system: NCI/ADR-RES
# [35] = test system: OVCAR-3
# [36] = test system: OVCAR-4
# [37] = test system: OVCAR-5
# [38] = test system: OVCAR-8
# [39] = test system: PC-3
# [40] = test system: RPMI-8226
# [41] = test system: RXF 393
# [42] = test system: SF-268
# [43] = test system: SF-295
# [44] = test system: SF-539
# [45] = test system: SK-MEL-28
# [46] = test system: SK-MEL-2
# [47] = test system: SK-MEL-5
# [48] = test system: SK-OV-3
# [49] = test system: SN12C
# [50] = test system: SNB-19
# [51] = test system: SNB-75
# [52] = test system: SR
# [53] = test system: SW-620
# [54] = test system: T47D
# [55] = test system: TK-10
# [56] = test system: U-251
# [57] = test system: UACC-257
# [58] = test system: UACC-62
# [59] = test system: UO-31
smiles,measurement,setting,value
O=[N+]([O-])/C=C/c1cc2ccc3ccccc3c2[nH]1,GI50,[1],1.36 µM (inactive)
same,GI50,[2],1.23 µM (inactive)
same,GI50,[3],2.16 µM (inactive)
same,GI50,[4],1.54 µM (inactive)
same,GI50,[5],1.89 µM (inactive)
same,GI50,[6],2.23 µM (inactive)
same,GI50,[7],0.299 µM (active)
same,GI50,[8],1.75 µM (inactive)
same,GI50,[9],1.9 µM (inactive)
same,GI50,[10],2.76 µM (inactive)
same,GI50,[11],1.92 µM (inactive)
same,GI50,[12],1.52 µM (inactive)
same,GI50,[13],1.72 µM
same,GI50,[14],2.12 µM (inactive)
same,GI50,[15],1.98 µM (inactive)
same,GI50,[16],1.76 µM (inactive)
same,GI50,[17],2.19 µM (inactive)
same,GI50,[18],3.56 µM (inactive)
same,GI50,[19],0.527 µM (active)
same,GI50,[20],1.8 µM (inactive)
same,GI50,[21],1.83 µM (inactive)
same,GI50,[22],1.23 µM (inactive)
same,GI50,[23],1.64 µM (inactive)
same,GI50,[24],1.44 µM (inactive)
same,GI50,[25],1.43 µM (inactive)
same,GI50,[26],1.69 µM (inactive)
same,GI50,[27],1.67 µM (inactive)
same,GI50,[28],0.776 µM (active)
same,GI50,[29],1.55 µM (inactive)
same,GI50,[30],1.06 µM (active)
same,GI50,[31],2.02 µM (inactive)
same,GI50,[32],2.11 µM (inactive)
same,GI50,[33],0.851 µM (active)
same,GI50,[34],2.42 µM (inactive)
same,GI50,[35],1.55 µM (inactive)
same,GI50,[36],1.98 µM (inactive)
same,GI50,[37],2.29 µM (inactive)
same,GI50,[38],2.28 µM (inactive)
same,GI50,[39],1.46 µM (inactive)
same,GI50,[40],0.229 µM (active)
same,GI50,[41],1.43 µM (inactive)
same,GI50,[42],1.77 µM (inactive)
same,GI50,[43],2.4 µM (inactive)
same,GI50,[44],1.86 µM (inactive)
same,GI50,[45],2.01 µM (inactive)
same,GI50,[46],0.796 µM (active)
same,GI50,[47],1.64 µM (inactive)
same,GI50,[48],4.07 µM (inactive)
same,GI50,[49],1.86 µM (inactive)
same,GI50,[50],2.66 µM (inactive)
same,GI50,[51],1.79 µM (inactive)
same,GI50,[52],0.555 µM (active)
same,GI50,[53],1.49 µM (inactive)
same,GI50,[54],1.31 µM (inactive)
same,GI50,[55],1.58 µM (inactive)
same,GI50,[56],1.34 µM (inactive)
same,GI50,[57],2.24 µM (inactive)
same,GI50,[58],1.68 µM (inactive)
same,GI50,[59],1.56 µM (inactive)
COc1ccc2c3c(ccc2c1)NC(C(=O)O)CC3 (configuration not stated),GI50,[1],97.7 µM (inactive)
same,GI50,[2],27.7 µM (inactive)
same,GI50,[3],62.1 µM (inactive)
same,GI50,[4],73.8 µM (inactive)
same,GI50,[5],> 100 µM (inactive)
same,GI50,[6],88.3 µM (inactive)
same,GI50,[8],39.5 µM (inactive)
same,GI50,[9],> 100 µM (inactive)
same,GI50,[10],67.8 µM (inactive)
same,GI50,[11],44.3 µM (inactive)
same,GI50,[12],80.2 µM (inactive)
same,GI50,[13],51.8 µM
same,GI50,[14],26.1 µM (inactive)
same,GI50,[15],80.5 µM (inactive)
same,GI50,[16],79.4 µM (inactive)
same,GI50,[17],45.2 µM (inactive)
same,GI50,[18],50.4 µM (inactive)
same,GI50,[19],40.8 µM (inactive)
same,GI50,[20],35.2 µM (inactive)
same,GI50,[21],67.3 µM (inactive)
same,GI50,[22],46.5 µM (inactive)
same,GI50,[23],45.1 µM (inactive)
same,GI50,[24],36.4 µM (inactive)
same,GI50,[25],85.7 µM (inactive)
same,GI50,[26],60.4 µM (inactive)
same,GI50,[27],57.8 µM (inactive)
same,GI50,[28],19.5 µM (inactive)
same,GI50,[29],> 100 µM (inactive)
same,GI50,[30],> 100 µM (inactive)
same,GI50,[31],> 100 µM (inactive)
same,GI50,[32],49.8 µM (inactive)
same,GI50,[33],29.2 µM (inactive)
same,GI50,[34],46.3 µM (inactive)
same,GI50,[35],35.6 µM (inactive)
same,GI50,[36],65.3 µM (inactive)
same,GI50,[37],> 100 µM (inactive)
same,GI50,[38],64.4 µM (inactive)
same,GI50,[39],74.6 µM (inactive)
same,GI50,[40],17.1 µM (inactive)
same,GI50,[41],> 100 µM (inactive)
same,GI50,[42],39.1 µM (inactive)
same,GI50,[43],58.5 µM (inactive)
same,GI50,[44],80.4 µM (inactive)
same,GI50,[45],67.8 µM (inactive)
same,GI50,[46],> 100 µM (inactive)
same,GI50,[47],27.4 µM (inactive)
same,GI50,[48],> 100 µM (inactive)
same,GI50,[49],63.1 µM (inactive)
same,GI50,[50],56.8 µM (inactive)
same,GI50,[51],57.7 µM (inactive)
same,GI50,[52],18.5 µM (inactive)
same,GI50,[53],35.2 µM (inactive)
same,GI50,[54],26.9 µM (inactive)
same,GI50,[55],52.1 µM (inactive)
same,GI50,[56],38.2 µM (inactive)
same,GI50,[57],> 100 µM (inactive)
same,GI50,[58],40.5 µM (inactive)
same,GI50,[59],47 µM (inactive)
